{"source": "paper PMC9481570", "about": "“A small molecule antagonist of SMN disrupts the interaction between SMN and RNAP II” (Nature Communications, 2022)", "key": {"GEMIN1": {"system": "GEMIN1", "assay": "AP-MS chemical proteomics, GEMIN1", "type": "binding, human", "conditions": "biotin-Cmpd 1 pulldown, competition with 200 μM compound 1 relative to DMSO, U2OS lysate", "method": "The samples for AP-MS were prepared following pulldown procedure as previously described with minor modifications. Briefly, U2OS cells were lysed in RIPA buffer and the cell lysate was equally divided into two groups: (1) DMSO group (control group): the cell lysate was incubated with 20 μM biotin-labeled compound 1; (2) Cpmd 1 group (sample group): the cell lysate was incubated with 20 μM biotin-labeled compound 1 and 200 μM free compound 1. Each group contains three biological replicates. They were incubated overnight at 4 °C, then 30 μL streptavidin beads (Thermo Fisher, 20353) was added and incubated at 4 °C for 1 h. The beads were then washed with RIPA buffer for 3 times, 10 min/time. […]\nSamples were analyzed by nanoLC-MS/MS (nanoRSLC, Thermo Fisher) using an Aurora series (Ion Opticks) reversed phase HPLC column (25 cm length × 75 µm inner diameter) and directly injected to an Orbitrap Eclipse (Thermo Fisher) using a 120 min gradient (mobile phase A = 0.1% formic acid, mobile phase B = 99.9% acetonitrile with 0.1% formic acid; hold 2% B for 5 min, 2–6% B in 0.1 min, 6–25% in 100 min, 25–50% in 15 min) at a flow rate of 350 nL/min. Eluted peptide ions were analyzed using a data-dependent acquisition (DDA) method with resolution settings of 120,000 and 15,000 (at m/z 200) for MS1 and MS2 scans, respectively. […]"}, "SMN": {"molecular_target": "T1, SMN (Homo sapiens, UniProt Q16637)", "T1 construct": "endogenous in cells; host or cells: U2OS", "T1 sequence (Q16637 whole entry)": "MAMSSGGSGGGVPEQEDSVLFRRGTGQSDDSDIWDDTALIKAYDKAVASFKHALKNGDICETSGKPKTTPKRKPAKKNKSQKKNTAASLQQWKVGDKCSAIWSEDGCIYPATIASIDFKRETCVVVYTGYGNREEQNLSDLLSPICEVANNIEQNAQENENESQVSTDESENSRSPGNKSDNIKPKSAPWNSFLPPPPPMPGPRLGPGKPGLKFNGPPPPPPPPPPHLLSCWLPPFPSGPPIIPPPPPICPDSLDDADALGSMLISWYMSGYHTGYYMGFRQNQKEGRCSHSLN", "assay": "Biotin-Cmpd 1 pulldown from U2OS cell lysates and western blotting, SMN", "type": "binding", "conditions": "U2OS cell lysate, 200 μM biotin-free competitor, 20 μM biotin-Cmpd 1", "method": "U2OS cells were lysed in RIPA buffer (140 mM NaCl, 10 mM Tris-HCl, pH 7.6, 1% Triton, 0.1% sodium deoxycholate, 1 mM EDTA) containing protease inhibitors (Roche, 05892791001). The cell lysate was incubated with 20 μM biotin-Cmpd 1 overnight at 4 °C, then 30 μL streptavidin beads (Thermo Fisher, 20353) was added and incubated at 4 °C for 1 h. The beads were then washed with RIPA buffer for 3 times, 10 min/time and loading buffer was added and boiled for 5 min for elution. The eluted samples were separated by SDS-PAGE for western blotting (SMN monoclonal antibody, BD Transduction Laboratories, 610646, clone No. 8, dilution of 1:1000; TDRD3 rabbit monoclonal antibody, Cell signaling, 5492, clone No. 5492, dilution of 1:1000; SND1 polyclonal antibody, Bethyl, A302-883A, dilution of 1:2000; RFP polyclonal antibody, Abcam, ab62341, dilution of 1:1000; GFP monoclonal antibody, Santa Cruz Biotechnology, sc-9996, dilution of 1:1000; Streptavidin-Horseradish Peroxidase (HRP), Invitrogen, SA10001, dilution of 1:5000) as previously described[52],[53]. For the competition analysis, 200 μM biotin-free compound 1 or compound 15 was added at the same time when the biotin-Cmpd 1 was incubated with the cell lysates."}}}
{"compound": "Cn1c2c(c(=N)c3c1CCC3)CCC2", "note": "[Compound 1, 4-methyl-2,3,4,5,6,7-hexahydrodicyclopenta[b,e]pyridin-8(1H)-imine]", "values": [{"measurement": "log2 FC (Cmpd 1/DMSO), GEMIN1", "setting": "GEMIN1", "value": "−6.9"}, {"measurement": "competition of the pulldown of SMN by biotin-Cmpd 1", "setting": "SMN", "value": "competed out"}]}
